Earlier results as cited in US20110071125A1, “SUBSTITUTED PHENYLAMINO-BENZENE DERIVATIVES USEFUL FOR TREATING HYPER-PROLIFERATIVE DISORDERS AND DISEASES ASSOCIATED WITH MITOGEN EXTRACELLULAR KINASE ACTIVITY” (priority 2007, published 2011).

System: colon cancer
Conditions: oral treatment, mouse models, ref. [18]

Compound: O=C(NOCC1CC1)c1ccc(F)c(F)c1Nc1ccc(I)cc1Cl [PD184352]
- colon cancer growth in vivo: inhibit colon cancer growth in vivo
